Reference: the supplement of paper PMC3974653
Where a name gives a salt, the structure may show the parent alone.

System: MTT (mouse pheochromocytoma)
Assay: IC50 of cell viability (ATP content)
Conditions: (24 or 48 h)
Procedure, shortened: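 Library compounds in DMSO (23 nl by pintool, 8 concentrations, final 0.5 nM to 46 µM) were applied for 24 or 48 hrs to MTT mouse pheochromocytoma cells that had been cultured overnight at 37°C, 5% CO2 in white 1536-well plates. Cell viability was measured by CellTiter-Glo ATP luminescence, read after 15 minutes, with positive-control wells set at 100% and DMSO wells at 0%. A four-parameter logistic fit of the normalised signals yielded the IC50.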

| SMILES | IC50 of cell viability |
| --- | --- |
| CCCC(O)C(CC)CO (configuration not stated) [2-ETHYL-1,3-HEXANEDIOL] | > 46 µM |
| COC1=CC=C2[C@H]3Cc4ccc(OC)c5c4[C@@]2(CCN3C)[C@H]1O5 [THEBAINE] | > 46 µM |
| COC(=O)CCc1ccc(OCC(O)CNC(C)C)cc1 (configuration not stated) [Esmolol hydrochloride] | > 46 µM |
| CCCCCC(C)N.O=[S+]([O-])(O)O (configuration not stated) [TUAMINOHEPTANE SULFATE] | > 46 µM |
| CO[C@H]1/C=C/O[C@@]2(C)Oc3c(C)c(O)c4c(c3C2=O)C2=NC3(CCN(CC(C)C)CC3)NC2=C(NC(=O)/C(C)=C\C=C\[C@H](C)[C@H](O)[C@@H](C)[C@@H](O)[C@@H](C)[C@H](OC(C)=O)[C@@H]1C)C4=O [Rifabutin] | > 46 µM |
| C=C(C)C1CC=C(C)CC1 [D-LIMONENE] | > 46 µM |
| CC(C)CCCC(C)N (configuration not stated) [OCTODRINUM] | > 46 µM |
| CN(C)C(=S)SC(=S)N(C)C [TETRAMETHYLTHIURAM MONOSULFIDE] | > 46 µM |
| CC/1=C(\CCN2CCC(CC2)C3=NOC4=C3C=CC(=C4)F)C(=O)N/5CCCCC5=N1 [RISPERIDONE] | > 46 µM |
| CCN[C@@H](C)Cc1ccccc1 [(+)-N-Ethylamphetamine] | > 46 µM |
| CCC[C@]1(CCc2ccccc2)CC(O)=C([C@H](CC)c2cccc(N[S+](=O)([O-])c3ccc(C(F)(F)F)cn3)c2)C(=O)O1 [TIPRANAVIR] | > 46 µM |
| CN(C)[C@H]\1[C@@H]2[C@@H](O)[C@@H]\3C(=C)C4=C(C(=CC=C4)O)C(=O)C3=C(\O)[C@@]2(O)C(=O)\C(=C1O)C(N)=O [Methacycline hydrochloride] | > 46 µM |
| N=C(N)NC[C@@H]1COC2(CCCCC2)O1 [Guanadrel sulfate] | > 46 µM |
| O=C(NNC[S+](=O)([O-])O)c1ccncc1 [ISONIAZID SODIUM METHANESULFONATE] | > 46 µM |
| Cc1ccc(O)c2ncccc12 [Tiliquinol] | > 46 µM |
| CC1CC[C@@]2(NC1)OC1CC3C4CC[C@@H]5CC(O)CC[C@@]5(C)C4CC[C@]3(C)C1C2C.Cl (some centres not stated) [TOMATIDINE HYDROCHLORIDE] | > 46 µM |
| CN[C@@H](C)CC\C=C(/C)C.CN[C@@H](C)CC\C=C(/C)C.O[C@@H]([C@@H](O)[C@@H](O)C(O)=O)[C@H](O)C(O)=O [Isometheptene mucate] | > 46 µM |
| CN1C(=O)CN2CCc3ccccc3C2c2cc(Cl)ccc21 (configuration not stated) [Clazolam] | > 46 µM |
| Nc1ccc(Cl)cc1N [4-Chloro-o-phenylenediamine] | > 46 µM |
| C[C@@H]1CCC[C@H](C)N1 [(cis-) Nanophine] | > 46 µM |
| CC1(C(=O)O)CCC2(C)CCC3(C)C(=CC(=O)[C@@H]4C5(C)CC[C@H](O[C@H]6O[C@H](C(=O)O)C(O)C(O)[C@H]6O[C@@H]6O[C@H](C(=O)O)C(O)C(O)C6O)C(C)(C)[C@@H]5CCC43C)[C@@H]2C1 (some centres not stated) [GLYCYRRHIZIC ACID, MONOSODIUM SALT] | > 46 µM |
| C#C[C@]1(O)CC[C@H]2[C@@H]3CCC4=CC(=O)CCC4=C3C=C[C@@]21CC [GESTRINONE] | > 46 µM |
| CC[N+](CC)(CC)CCOc1cccc(OCC[N+](CC)(CC)CC)c1OCC[N+](CC)(CC)CC [GALLAMINE] | > 46 µM |

| SMILES | IC50 of cell viability |
| --- | --- |
| Cc1nnc2n1-c1sc(CCc3ccc(CC(C)C)cc3)cc1C(c1ccccc1Cl)=NC2C (configuration not stated) [ISRAPAFANT] | > 46 µM |
| CNC[C@H](O)[C@@H](O)[C@H](O)[C@H](O)CO [Meglumine] | > 46 µM |
| NNc1nncc2ccccc12 [Hydralazine hydrochloride] | > 46 µM |
| O=c1[nH]c(=O)n(C2CCCO2)cc1F (configuration not stated) [TEGAFUR] | > 46 µM |
| CC(C)(C)c1ccc(O)c(O)c1 [p-tert-Butylcatechol] | > 46 µM |
| CCCCCCCCCCCCOCCCN [LAURIXAMINUM] | > 46 µM |
| O=C(CS(=O)Cc1ccco1)NC/C=C/COc1cc(CN2CCCCC2)ccn1 (configuration not stated) [LAFUTIDINE] | > 46 µM |
| Cc1cccc(Nc2cc(Cl)nc(SCC(=O)O)n2)c1C | > 46 µM |
| COc1cc(C)nc(-n2nc(C)cc2OC)n1 [Epirizole] | > 46 µM |
| Cc1noc(N[S+](=O)([O-])c2ccc(N)cc2)c1C [Sulfisoxazole] | > 46 µM |
| OCC1O[C@H](Oc2ccc(O)cc2)C(O)C(O)C1O (some centres not stated) [ARBUTIN] | > 46 µM |
| CCCCC/C(C=O)=C/c1ccccc1 [AMYL CINNAMAL] | > 46 µM |
| CC(=O)O[C@H]1C[C@H](O[C@H]2[C@@H](O)CC(O[C@H]3[C@@H](O)C[C@H](O[C@H]4CC[C@@]5(C)[C@H](CC[C@@H]6[C@@H]5CC[C@]5(C)[C@@H](C7=CC(=O)OC7)CC[C@]65O)C4)O[C@@H]3C)O[C@@H]2C)O[C@H](C)[C@H]1O[C@@H]1O[C@H](CO)[C@@H](O)[C@H](O)[C@H]1O (some centres not stated) [LANATOSIDE A] | > 46 µM |
| COC(F)(F)C(Cl)Cl [METHOXYFLURANE] | > 46 µM |
| CC(C)Cn1cnc2c1c(=O)n(C)c(=O)n2C [ISBUFYLLINUM] | > 46 µM |
| CC(=O)OC/C=C(C)/C=C/C=C(C)/C=C/C1=C(C)CCCC1(C)C [Retinyl acetate] | > 46 µM |
| COc1ccccc1O [o-methoxyphenol] | > 46 µM |
| NC(=S)N[S+](=O)([O-])c1ccc(N)cc1 [SULFATOLAMIDE] | > 46 µM |
| O=C(CCCCC(=O)Nc1c(I)cc(I)c(C(=O)O)c1I)Nc1c(I)cc(I)c(C(=O)O)c1I [Iodipamide] | > 46 µM |
| O=C(NCCc1c[nH]c2ccccc12)c1cccnc1 [NICOTREDOLUM] | > 46 µM |
| C[C@@H]1O[C@@H](OC[C@H]2O[C@@H](Oc3c(-c4ccc(O)c(O)c4)oc4cc(O)cc(O)c4c3=O)[C@H](O)[C@@H](O)[C@@H]2O)[C@H](O)[C@H](O)[C@H]1O [Rutin] | > 46 µM |
| O=C1OC(OC(=O)c2cccnc2Nc2cccc(C(F)(F)F)c2)c2ccccc21 (configuration not stated) [TALNIFLUMATUM] | > 46 µM |
| O=C(OCCO)c1ccccc1O [2-Hydroxyethyl salicylate] | > 46 µM |

| SMILES | IC50 of cell viability |
| --- | --- |
| CC[C@H]1OC(=O)[C@H](C)[C@@H](O[C@H]2C[C@@](C)(OC)[C@@H](O)[C@H](C)O2)[C@H](C)[C@@H](O[C@@H]2O[C@H](C)C[C@H](N(C)C)[C@H]2O)[C@](C)(O)C[C@@H](C)CN(C)[C@H](C)[C@@H](O)[C@]1(C)O [Azithromycin] | > 46 µM |
| CC(=O)OCC(=O)[C@@]1(O)CCC2C3CCC/4=C/C(=O)/C=C\C4(C)C3C(O)C[C@@]12C (some centres not stated) [PREDNISOLONE ACETATE] | > 46 µM |
| O=C1OC(c2ccc(O)c([S+](=O)([O-])O)c2)(c2ccc(O)c([S+](=O)([O-])O)c2)c2c(Br)c(Br)c(Br)c(Br)c21 (configuration not stated) [SULFOBROMOPHTHALEIN SODIUM] | > 46 µM |
| COc1cc([S+](C)[O-])ccc1-c1nc2ncccc2[nH]1 (configuration not stated) [SULMAZOLE] | > 46 µM |
| CCN1\C=C(\C(O)=O)C(=O)C2=C1C=C(N3CCNCC3)C(=C2)F [Norfloxacin] | > 46 µM |
| CC(CC(c1ccccc1)c1ccccc1)NC(C)(C)C (configuration not stated) [Terodiline hydrochloride] | > 46 µM |
| C[N+]1(CCC(C(N)=O)(c2ccccc2)c2ccccc2)CCCCC1 [FENPIVERINII BROMIDUM] | > 46 µM |
| CC(C)(C)NC[C@H](O)COc1cccc2c1CCCC2=O [(-) -Levobunolol hydrochloride] | > 46 µM |
| Nc1ccncc1 [4-AMINOPYRIDINE] | > 46 µM |
| CCCCCCCCCCCCCCCCCCNC(=O)OC1CCN(C(=O)OC[C@H](COC(=O)N(Cc2cccc[n+]2CC)C(=O)c2ccccc2OC)OC)CC1 [Minopafant] | > 46 µM |
| CCc1ccc(CCOc2ccc(CC3SC(=O)NC3=O)cc2)nc1.Cl (configuration not stated) [PIOGLITAZONE HYDROCHLORIDE] | > 46 µM |
| CCC1OC(=O)CC(O)C(C)[C@@H](O[C@@H]2OC(C)[C@H](O[C@@H]3C[C@@](C)(O)C(O)C(C)O3)C(N(C)C)C2O)[C@H](CC=O)CC(C)C(=O)/C=C/C(C)=C/[C@@H]1COC1OC(C)C(O)C(OC)[C@@H]1OC (some centres not stated) [TYLOSIN TARTRATE] | > 46 µM |
| CNC1(C)C2CCC(C2)C1(C)C (configuration not stated) [MECAMYLAMINE] | > 46 µM |
| CC1CC(O)CC(C)(C)C1 (configuration not stated) [3,3,5-TRIMETHYLCYCLOHEXANOL] | > 46 µM |
| Clc1ccc(CO[C@@H](Cn2ccnc2)c2ccc(Cl)cc2Cl)c(Cl)c1 [Miconazole] | > 46 µM |
| CN1CCc2c(c3ccccc3n2Cc2ccccc2)C1.CN1CCc2c(c3ccccc3n2Cc2ccccc2)C1.O=[S+]([O-])(O)c1cccc2c([S+](=O)([O-])O)cccc12 [Mebhydroline 1,5-naphtalenedisulfonate] | > 46 µM |
| O=C1CC[C@H](C(=O)N[C@@H]2C[C@H]2c2ccccc2)N1 [ROLICYPRINUM] | > 46 µM |
| c1ccc(C(OC2CCCN(CCc3ccc4c(c3)OCO4)C2)c2ccccc2)cc1 (configuration not stated) [Zamifenacin fumarate] | > 46 µM |
| O=C1NCN(c2ccccc2)C12CCN(CC1COc3ccccc3O1)CC2 (configuration not stated) [SPIROXATRINE] | > 46 µM |
| CC([C@H](O)c1ccccc1)N(C)C (stereo partly drawn) [N-METHYL (-)EPHEDRINE] | > 46 µM |
| CC(=O)C1CCC2C3CC\C4=C\C(=O)CCC4(C)C3CCC12C (configuration not stated) [Progestin] | > 46 µM |
